ChEMBL document CHEMBL4602618, “Novel compounds that reverse the disease phenotype in Type 2 Gaucher disease patient-derived cells” (Bioorg Med Chem Lett, 2020)
Values after ≈ are worked out from the molar mass of the structure shown.

Assays:
[1] = molecular target: T1, Lysosomal acid glucosylceramidase (Homo sapiens) (UniProt P04062); experiment: Chaperone activity at GCase in wild-type human fibroblasts assessed as increase in GPN-induced reduction of calcium release using Fluo-8AM based fluorescence assay relative to control
T1 sequence (whole entry): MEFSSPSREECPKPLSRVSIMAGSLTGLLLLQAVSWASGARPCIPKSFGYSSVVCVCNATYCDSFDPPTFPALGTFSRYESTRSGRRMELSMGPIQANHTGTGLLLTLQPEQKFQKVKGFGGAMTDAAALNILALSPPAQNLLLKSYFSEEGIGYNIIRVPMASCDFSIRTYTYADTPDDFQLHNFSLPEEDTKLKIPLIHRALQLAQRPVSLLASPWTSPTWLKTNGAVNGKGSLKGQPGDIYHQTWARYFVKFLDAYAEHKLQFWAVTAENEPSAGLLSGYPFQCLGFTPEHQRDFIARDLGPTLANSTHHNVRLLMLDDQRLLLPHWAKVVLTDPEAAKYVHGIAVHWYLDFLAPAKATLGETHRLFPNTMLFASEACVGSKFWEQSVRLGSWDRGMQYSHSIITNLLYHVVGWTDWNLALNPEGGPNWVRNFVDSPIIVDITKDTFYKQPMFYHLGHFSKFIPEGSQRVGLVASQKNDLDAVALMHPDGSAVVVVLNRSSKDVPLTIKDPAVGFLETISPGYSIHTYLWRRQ

Homo sapiens = organism: Homo sapiens; experiment: Chaperone activity at GCase L444P GBA gene mutant in human fibroblasts derived from Gaucher patient assessed as increase in GPN-induced reduction of calcium release using Fluo-8AM based fluorescence assay relative to control
[2] = molecular target: T2, Estrogen receptor (Homo sapiens) (UniProt P03372); experiment: Agonist activity at estradiol receptor (unknown origin) at 10 uM relative to control
T2 sequence (whole entry): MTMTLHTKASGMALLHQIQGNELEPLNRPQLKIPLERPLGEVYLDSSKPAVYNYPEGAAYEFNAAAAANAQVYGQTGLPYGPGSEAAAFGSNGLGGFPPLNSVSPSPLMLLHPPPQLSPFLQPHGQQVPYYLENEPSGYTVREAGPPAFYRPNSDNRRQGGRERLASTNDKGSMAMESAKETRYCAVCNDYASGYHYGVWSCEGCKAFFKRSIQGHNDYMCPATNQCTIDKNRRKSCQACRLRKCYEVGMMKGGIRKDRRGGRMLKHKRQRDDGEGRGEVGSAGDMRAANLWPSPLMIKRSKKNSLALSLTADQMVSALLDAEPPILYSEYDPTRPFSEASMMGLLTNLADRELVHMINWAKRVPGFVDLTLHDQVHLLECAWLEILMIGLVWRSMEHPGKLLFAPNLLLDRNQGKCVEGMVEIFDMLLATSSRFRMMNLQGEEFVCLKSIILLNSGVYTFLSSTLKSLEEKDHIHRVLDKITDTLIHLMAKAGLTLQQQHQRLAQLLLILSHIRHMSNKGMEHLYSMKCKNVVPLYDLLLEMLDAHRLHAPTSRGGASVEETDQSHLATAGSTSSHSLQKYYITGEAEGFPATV

[3] = Chaperone activity at GCase L444P GBA gene mutant in human fibroblasts derived from Gaucher patient assessed as increase in GPN-induced reduction of calcium release using Fluo-8AM based fluorescence assay
[4] = mouse, microsomes
Description: Metabolic stability in mouse liver microsomes assessed as half life

[5] = human, microsomes
[6] = Aqueous solubility of compound in PBS; type: physicochemical; settings: buffer

Compound | Emax [1] | Emax (Homo sapiens) | Activity [2] | EC50 [3] | t1/2 [4] | t1/2 [5] | solubility [6]
CC/C(=C(\c1ccccc1)c1ccc(OCCN(C)C)cc1)c1ccccc1 | 28% | 148% | – | – | – | – | –
CC/C(=C/c1ccc(OCCN(C)C)cc1)c1ccccc1 | – | 80% | 35% | 15.5 µM | – | – | –
CC/C(=C/c1ccc(OCCN(C)C)cc1)Cc1ccccc1 | – | 40% | 47% | 2.3 µM | – | – | –
CCCCC(C(=O)c1ccc(OCCN(C)C)cc1)c1ccccc1C(C)C (configuration not stated) | 56% | 401% | 45% | 1.4 µM | 7.9 min | 21.6 min | 49.4 µM (≈ 18.8 µg/mL)
CC/C(=C/c1ccc(OCCN(C)C)cc1)c1ccc(F)cc1 | – | 0% | 46% | > 20 µM | – | – | –
CCC(Cc1ccc(OCCN(C)C)cc1)c1ccccc1 (configuration not stated) | – | 154% | 43% | 4.3 µM | – | – | –
CC/C(=C\c1ccc(OCCN(C)C)cc1)c1ccccc1 | – | 73% | 19% | 5.8 µM | – | – | –
CC/C(=C\c1ccc(OCCN(C)C)cc1)Cc1ccccc1 | – | 67% | 69% | 3.1 µM | – | – | –
CCCC(CCC)(C(=O)c1ccc(OCCN(C)C)cc1)c1ccccc1 | – | 60% | 25% | 4 µM | – | – | –
CC/C(=C/c1ccc(OCCN(C)C)cc1)c1ccc(C#N)cc1 | – | 47% | 32% | 4.3 µM | – | – | –
CC(C)CCC(C(=O)c1ccc(OCCN(C)C)cc1)c1ccccc1 (configuration not stated) | – | 191% | 35% | 3.6 µM | – | – | –
CC/C(=C/c1ccc(OCCN(C)C)cc1)c1ccc([N+](=O)[O-])cc1 | – | 0% | – | > 20 µM | – | – | –
CC/C(=C/c1ccc(OCCN(C)C)cc1)c1ccc(N)cc1 | – | 0% | 25% | > 20 µM | – | – | –
C=Cc1ccccc1C(CCCC)C(=O)c1ccc(OCCN(C)C)cc1 (configuration not stated) | – | 177% | 100% | 2.3 µM | – | – | –
CC/C(=C/c1ccc(OCCN(C)C)cc1)c1ccc(C(N)=O)cc1 | – | 0% | 46% | > 20 µM | – | – | –
CC(C)CC(C(=O)c1ccc(OCCN(C)C)cc1)c1cccc(C(C)C)c1 (configuration not stated) | – | 80% | – | 1.5 µM | – | – | –
CCCCC(C(=O)c1ccc(OCCN(C)C)cc1)c1ccccc1CC (configuration not stated) | – | 138% | – | 0.65 µM | – | – | –
CC(C)CC(C(=O)c1ccc(OCCN(C)C)cc1)c1ccccc1C(C)C (configuration not stated) | 148% | 406% | 39% | – | – | – | –
CCCC/C(=C\c1ccc(OCCN(C)C)cc1)c1ccccc1 | – | 56% | 98% | 7.2 µM | – | – | –
CC(C)CC(C(=O)c1ccc(OCCN(C)C)cc1)c1ccccc1 (configuration not stated) | – | 108% | 40% | 0.9 µM | – | – | –
CCC(Cc1ccccc1)c1ccc(OCCN(C)C)cc1 (configuration not stated) | – | 0% | 75% | > 20 µM | – | – | –
CC/C(=C/c1ccc(OCCN(C)C)cc1)c1ccc(Cl)cc1 | – | 70% | 70% | 5.4 µM | – | – | –
CC(C)C(C(=O)c1ccc(OCCN(C)C)cc1)c1ccccc1 (configuration not stated) | – | 54% | – | 4.4 µM | – | – | –
CCCCC(C(=O)c1ccc(OCCN(C)C)cc1)c1ccccc1 (configuration not stated) | – | 0% | – | > 20 µM | – | – | –
CC/C(=C(\c1ccc(I)cc1)c1ccc(OCCN2CCCC2)cc1)c1ccccc1 [IDOXIFENE] | – | 48% | – | 10.7 µM | – | – | –
CCCCCCC(C(=O)c1ccc(OCCN(C)C)cc1)c1ccccc1 (configuration not stated) | – | 0% | 5% | > 20 µM | – | – | –
C/C=C/c1ccccc1C(CCCC)C(=O)c1ccc(OCCN(C)C)cc1 (configuration not stated) | 109% | 257% | 35% | 2.2 µM | 9.1 min | 24.4 min | 45.2 µM (≈ 17.2 µg/mL)
CC/C(=C\c1ccccc1)c1ccc(OCCN(C)C)cc1 | – | 53% | 43% | 3 µM | – | – | –
CC(C)CC(C(=O)c1ccc(OCCN(C)C)cc1)c1ccccc1C1CC1 (racemic) | 50% | 240% | 0% | 3.1 µM | 7.7 min | 26.7 min | 31.7 µM (≈ 12 µg/mL)
